Test system: p53alpha
Assay: Western blot of p53 isoforms in HCT 116 cells after doxorubicin with or without pulsed technology
Type: cell-based, Human
Settings: 0.25 μM for 1 hour
Experimental: Human Colon Tumour (HCT) 116 cells (adherent cells) (ATCC, USA-ATCC® CCL-247™) were seeded at a density of 3×10^5 cells per well in two CELLSTAR®6-well plates (9.6 cm^2) in a final volume of 5 mL Dulbeccos Modified Eagle Medium (DMEM) (Thermo Fisher, USA)+10% Fetal Bovine Serum (FBS) (Hyclone, USA) 24 hours before treatment.
The naked agent used was Doxorubicin (0.25 μM) (Sigma Aldrich) in absolute ethanol and was given to the cells for a 1 hour treatment period and incubated at 37° C., at 5% CO^2.
After treatment the media was removed and fresh media was added to the cells. One of the plates was incubated directly at 37° C., at 5% CO^2 and the second plate was placed in a different incubator and pulsed using the pulsed technology of the present invention at 37° C., at 5% CO^2.
Protein extracts were collected at 3 hours, 6 hours, 9 hours, 16 hours or 24 hours of treatment for analysis by SDS-page.
1. For protein extraction the cells were washed twice with ice-cold PBS and then lysed in NP-40 extraction buffer (50 mM Tris ph 7.5; 10% glycerol; 0.1% “NP-40 Alternative” (Merck Millipore, USA); 100 mM NaCl; 0.2 mM EDTA) supplemented with 1× Complete™ Protease Inhibitor Cocktail (Roche, Switzerland). Extracts were sonicated (20 seconds, 20% amplitude) and protein concentration was determined using BCA™ Protein Assay Kit (ThermoFisher Scientific USA) according to the manufacturers recommendations.
1. Protein extracts (15/20 μg depending on the experiment) were supplemented with 0.1M dithiothreitol (DTT) and 1×LDS buffer (Invitrogen, USA) and were heated at 95° C. for 10 min before loading on NuPAGE 10% Bis-Tris polyacrylamide gels (Invitrogen, USA).
2. Protein samples were separated by electrophoresis (100V) using 1×MOPS Running Buffer. Transfer of proteins was performed at 12V overnight onto a nitrocellulose membrane (Protran 0.1 μm from GE Healthcare, USA) in 1× Transfer Buffer supplemented with 20% methanol. 1× Transfer Buffer is prepared from 10× Wet blot solution containing 144 g of glycine and 30 g Tris-Base in a final volume of 1 L milli-Q water.
3. Membranes were blocked for 30 min in 5% BSA diluted in PBS—0.1% Tween20 before being incubated overnight with a primary antibody (Mouse monoclonal antibody D01). After a wash of 15 min. in PBS-Tween20, membranes were incubated for 1 h with a corresponding secondary antibody (HRP conjugated Donkey anti Mouse). […]
At the end of the incubation membranes were washed twice with PBS-Tween20 for 15 min followed by a final 10 min. wash with PBS. The chemiluminescence signal was detected on Hyperfilm™ ECL (Cytiva, USA) using the Amersham ECL Western Blotting Detection System (Cytiva, USA).

## COc1cccc2c1C(=O)c1c(O)c3c(c(O)c1C2=O)C[C@@](O)(C(=O)CO)C[C@@H]3O[C@H]1C[C@H](N)[C@H](O)[C@H](C)O1 [doxorubicin, Doxorubicin]
Pulsed technology vs control arms, FIG. 13
  H2AX expression (ionising radiation marker, Western Blot): no observed change
Pulsed technology vs control, after 16 hours, FIG. 14
  p53alpha expression (Western Blot): significant overproduction
Then pulsed technology vs control, 3 to 24 hours, FIG. 13
  p53alpha expression (Western Blot): upregulated
Then pulsed technology vs control, FIG. 13
  expression of other p53 isoforms d133p53alpha, d133p53beta and d160p53beta (Western Blot): more upregulated
